For test [1], the target named is T1, human ERα (Homo sapiens, UniProt P03372).
T1 sequence (P03372 1-595): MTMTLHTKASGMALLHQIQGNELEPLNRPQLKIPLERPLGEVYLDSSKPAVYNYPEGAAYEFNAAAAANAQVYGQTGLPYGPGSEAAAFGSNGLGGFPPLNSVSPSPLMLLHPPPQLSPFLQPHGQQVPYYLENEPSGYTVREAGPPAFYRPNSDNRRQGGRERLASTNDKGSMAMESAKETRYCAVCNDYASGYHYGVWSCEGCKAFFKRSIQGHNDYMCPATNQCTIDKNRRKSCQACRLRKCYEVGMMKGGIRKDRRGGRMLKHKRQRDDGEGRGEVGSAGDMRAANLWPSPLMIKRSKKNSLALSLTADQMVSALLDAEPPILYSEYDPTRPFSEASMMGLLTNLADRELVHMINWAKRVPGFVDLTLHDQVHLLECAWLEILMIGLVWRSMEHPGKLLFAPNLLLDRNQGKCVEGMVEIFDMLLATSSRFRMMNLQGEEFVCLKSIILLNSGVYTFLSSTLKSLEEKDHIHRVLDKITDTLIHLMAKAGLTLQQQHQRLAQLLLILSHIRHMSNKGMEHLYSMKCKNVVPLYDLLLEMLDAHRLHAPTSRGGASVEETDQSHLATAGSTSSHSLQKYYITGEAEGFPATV
The test can be described thus: Creatine kinase expression (ER/CK) in Ad5-wt-hERα infected HAECT-1 cells. The note with it: for ER/CK % E2: efficacy relative to the maximal stimulation observed with E2.

The target of test [2] is T1, human ERα. The test can be described thus: NF-κB luciferase reporter (ER/NF-KB-luc) in Ad5-wt-hERα infected HAECT-1 cells. As to conditions: for IC50: ER/NF-KB-luc IC50, Ad5-wt-ER infected HAECT-1 cells, IL-1β; for Emax: HAECT1, read-out: ER/NF-KB-luc % E2, efficacy relative to the maximal inhibition observed with E2.

“And” between values parts separate entries of the source, which are not always exact repeats. Equal values may be shown once.

Regarding `Cc1cccc(-n2nc(-c3ccc(O)cc3O)c3ccc(O)cc32)c1` [Example 23, 4-[6-hydroxy-1-(3-methylphenyl)-1H-indazol-3-yl]benzene-1,3-diol], on human ERα [1], the EC50 is 72 nM and the “ER/CK % E2” value was determined as 55 % E2. Moreover, on human ERα [2], the IC50 was 239 nM and the Emax came to 76%.
Turning to `C=CCn1nc2c(C(F)(F)F)cccc2c1-c1ccc(O)cc1O` [Example 75, 4-[2-allyl-7-(trifluoromethyl)-2H-indazol-3-yl]-1,3-benzenediol], on human ERα [1], the EC50 worked out at 982 nM and the “ER/CK % E2” value turned out to be 48 % E2. Further, at human ERα [2], half-maximal inhibition (IC50) required 63 nM and the Emax is 83%.
Take `Oc1ccc(-c2nn(Cc3ccccc3)c3ccccc23)c(O)c1` [Example 183, 4-(1-benzyl-1H-indazol-3-yl)benzene-1,3-diol]: on human ERα [1], the EC50 worked out at 2930 nM and the “ER/CK % E2” value was determined as 48 % E2. Also, on human ERα [2], 431 nM corresponded to half-maximal inhibition (IC50) and the Emax stood at 135%.
For `CCC(CC)Cn1nc(-c2ccc(O)cc2O)c2cccc(C(F)(F)F)c21` [Example 69, 4-[1-(2-ethylbutyl)-7-(trifluoromethyl)-1H-indazol-3-yl]benzene-1,3-diol] the same measures were 704 nM, 32 % E2, 235 nM and 68%.
In the same order, the values of `Cc1cc(O)ccc1-c1nn(C2CCCC2)c2c(-c3ccc(O)c(O)c3)cccc12` [Example 259, 4-[1-cyclopentyl-3-(4-hydroxy-2-methylphenyl)-1H-indazol-7-yl]benzene-1,2-diol] are 143 nM, 38 % E2, 18 nM and 73%.
For `CC(C)n1nc(-c2ccc(O)cc2O)c2cccc(C(F)(F)F)c21` [Example 65, 4-[1-isopropyl-7-(trifluoromethyl)-1H-indazol-3-yl]benzene-1,3-diol] the same measures were 218 nM, 42 % E2, 41 nM and 86%.
`Cc1cc(O)ccc1-c1nn(C2CCCC2)c2c(-c3cc4ccccc4s3)cccc12` [Example 266, 4-[7-(1-benzothien-2-yl)-1-cyclopentyl-1H-indazol-3-yl]-3-methylphenol]: at human ERα [1], the midpoint of the response, the EC50, lay at 213 nM and the “ER/CK % E2” value was determined as 35 % E2. Moreover, at human ERα [2], half-maximal inhibition (IC50) was put at 68 nM and the Emax amounted to 77%.
For `CC(C)n1nc(-c2ccc(O)cc2)c2cccc(-c3cccs3)c21` [Example 227, 4-(1-isopropyl-7-thien-2-yl-1H-indazol-3-yl)phenol] the same measures were 279 nM, 21 % E2, 56 nM and 70%.
As for `Oc1ccc(-c2nn(C3CCCC3)c3c(-c4ccco4)cccc23)cc1` [Example 244, 4-[1-cyclopentyl-7-(2-furyl)-1H-indazol-3-yl]phenol], at human ERα [1], the EC50 amounted to 208 nM and the “ER/CK % E2” value worked out at 33 % E2. In addition, on human ERα [2], the IC50 came to 33 nM and the Emax is 48%.
For `Cc1cc(O)ccc1-c1nn(C2CCCC2)c2c(-c3ccco3)cccc12` [Example 263, 4-[1-cyclopentyl-7-(2-furyl)-1H-indazol-3-yl)-3-methylphenol] the same measures were 165 nM, 17 % E2, 30 nM and 84%.
For `Cc1cc(O)ccc1-c1nn(C(C)C)c2c(F)cccc12` [Example 91, 4-(7-fluoro-1-isopropyl-1H-indazole-3-yl)-3-methylphenol] the same measures were 787 nM, 24 % E2, 80 nM and 82%.
In the same order, the values of `Oc1ccc(-c2nn(C3CCCC3)c3c(-c4ccc(O)c(O)c4)cccc23)cc1` [Example 240, 4-[1-cyclopentyl-3-(4-hydroxyphenyl)-1H-indazol-7-yl]benzene-1,2-diol] are 974 nM, 32 % E2, 158 nM and 54%.
For `Cn1nc(-c2ccc(O)cc2O)c2cccc(Cl)c21` [Example 170, 4-(7-chloro-1-methyl-1H-indazol-3-yl)benzene-1,3-diol], at human ERα [1], a half-maximal response (EC50) required 827 nM and the “ER/CK % E2” value came out at 28 % E2. Further, on human ERα [2], it took 276 nM to reach half-maximal inhibition (IC50) and the Emax stood at 77%.
In the same order, the values of `Oc1ccc(-c2c3cccc(F)c3nn2C2CCCC2)cc1` [Example 61, 4-(2-cyclopentyl-7-fluoro-2H-indazol-3-yl)phenol] are 76 nM, 33 % E2, 50 nM and 62%.
For `Oc1ccc(-c2nn(C3CCCC3)c3c(-c4ccccc4)cccc23)cc1` [Example 246, 4-(1-cyclopentyl-7-phenyl-1H-indazol-3-yl)phenol] the same measures were 136 nM, 28 % E2, 11 nM and 82%.
Regarding `Oc1ccc(-c2n[nH]c3ccccc23)cc1O` [Example 202, 4-(1H-indazol-3-yl)benzene-1,2-diol], on human ERα [1], the concentration for a half-maximal effect (EC50) worked out at 1840 nM and the “ER/CK % E2” value stood at 68 % E2. Besides, on human ERα [2], the IC50 amounted to 539 nM and the Emax was determined as 160%.
For `CC(C)n1nc(-c2ccc(O)cc2)c2cccc(F)c21` [Example 55, 4-(7-fluoro-1-isopropyl-1H-indazol-3-yl)phenol] the same measures were 401 nM, 49 % E2, 26 nM and 90%.
Turning to `Cc1cc(O)ccc1-c1c2cccc(Cl)c2nn1C(C)C` [Example 81, 4-(7-chloro-2-isopropyl-2H-indazol-3-yl)-3-methylphenol], at human ERα [1], a half-maximal response (EC50) required 308 nM and the “ER/CK % E2” value is reported as 62 % E2. For the same compound, on human ERα [2], the IC50 came to 33 nM and the Emax came out at 92%.
For `Oc1ccc(-c2nn(C3CCCCC3)c3c(F)cccc23)cc1` [Example 33, 4-(1-cyclohexyl-7-fluoro-1H-indazol-3-yl)phenol] the same measures were 51 nM, 34 % E2, 37 nM and 92%.
In the same order, the values of `C=CCn1nc2c(Cl)cccc2c1-c1ccc(O)cc1C` [Example 78, 4-(2-allyl-7-chloro-2H-indazol-3-yl)-3-methylphenol] are 2200 nM, 32 % E2, 590 nM and 90%.
For `CCCCn1nc(-c2ccc(O)cc2)c2cc(C(F)(F)F)ccc21` [Example 206, 4-[1-butyl-5-(trifluoromethyl)-1H-indazol-3-yl]phenol] the same measures were 902 nM, 27 % E2, 473 nM and 84%.
`CCCCCn1nc(-c2ccc(O)cc2)c2cccc(C(F)(F)F)c21` [Example 47, 4-[1-pentyl-7-(trifluoromethyl)-1H-indazol-3-yl]phenol]: at human ERα [1], the EC50 worked out at 13 nM and the “ER/CK % E2” value was 26 % E2. Moreover, at human ERα [2], half-maximal inhibition (IC50) was put at 97 nM and the Emax is 94%.
As to `CCC(=O)Oc1ccc(-c2nn(C3CCCC3)c3c(F)cccc23)cc1` [Example 115, 4-(1-cyclopentyl-7-fluoro-1H-indazol-3-yl)phenyl propionate], at human ERα [1], the EC50 stood at 166 nM and the “ER/CK % E2” value stood at 91 % E2. Also, on human ERα [2], the IC50 is 27 nM and 246 nM; the Emax came out at 82%. Moreover, at human ERα [2] (efficacy relative to the maximal inhibition observed with E2), the “ER/NF-KB-luc % E2” value was 71 % E2.
As to `CCCn1nc(-c2ccc(O)cc2C)c2cccc(Cl)c21` [Example 86, 4-(7-chloro-1-propyl-1H-indazole-3-yl)-3-methylphenol], at human ERα [1], the EC50 turned out to be 413 nM and the “ER/CK % E2” value amounted to 27 % E2. On human ERα [2], the IC50 was found to be 255 nM and the Emax was determined as 83%.
For `Cc1cc(O)ccc1-c1nn(C2CCCC2)c2c(-c3ccccc3)cccc12` [Example 265, 4-(1-cyclopentyl-7-phenyl-1H-indazol-3-yl)-3-methylphenol], at human ERα [1], a half-maximal effect (EC50) was put at 138 nM and the “ER/CK % E2” value was determined as 28 % E2. For the same compound, at human ERα [2], half-maximal inhibition (IC50) was put at 6 nM and the Emax was 82%.
For `OCCn1nc(-c2ccc(O)cc2)c2ccccc21` [Example 158, 4-[1-(2-hydroxyethyl)-1H-indazol-3-yl]phenol] the same measures were 1120 nM, 59 % E2, 515 nM and 106%.
In the same order, the values of `CC(C)n1nc(-c2ccc(O)cc2O)c2cccc(F)c21` [Example 87, 4-(7-fluoro-1-isopropyl-1H-indazole-3-yl)benzene-1,3-diol] are 188 nM, 24 % E2, 347 nM and 77%.

For the origin of these results see patent US7241791B2, “Substituted 4-(indazol-3-yl)phenols” (Wyeth, priority 2002, dated 2007).
